{"source": "patent US20260285850A1", "about": "“SUBSTITUTED OXAZOLIDINONES AND IMIDAZOLINONES AS HERBICIDES” (FMC CORPORATION, priority 2023, published 2026)", "format_in_all_cases": "in vivo", "key": {"[1]": {"test_system": "barnyardgrass (Echinochloa crus-galli)", "assay": "Test A preemergence soil spray, visual injury rating 0-100", "conditions": "10 days, 0 = no effect, 100 = complete control", "summary_of_the_method": "(§1)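 Grow plants in loam soil blended with sand. Apply formulated compound (non-phytotoxic solvent, surfactant) as a directed soil spray before emergence, or to plants at the one- to two-leaf stage after emergence. Hold in greenhouse 10 days, then rate injury visually versus untreated controls on a 0-100 scale.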"}, "[2]": {"test_system": "blackgrass (Alopecurus myosuroides)", "assay": "Test A preemergence soil spray, visual injury rating 0-100", "conditions": "10 days, 0 = no effect, 100 = complete control", "summary_of_the_method": "as §1"}, "[3]": {"test_system": "corn (Zea mays)", "assay": "Test A preemergence soil spray, visual injury rating 0-100", "conditions": "10 days, 0 = no effect, 100 = complete control", "summary_of_the_method": "as §1"}, "[4]": {"test_system": "green foxtail (Setaria viridis)", "assay": "Test A preemergence soil spray, visual injury rating 0-100", "conditions": "10 days, 0 = no effect, 100 = complete control", "summary_of_the_method": "as §1"}, "[5]": {"test_system": "kochia (Bassia scoparia)", "assay": "Test A preemergence soil spray, visual injury rating 0-100", "conditions": "10 days, 0 = no effect, 100 = complete control", "summary_of_the_method": "as §1"}, "[6]": {"test_system": "oat, wild (wild oat, Avena fatua)", "assay": "Test A preemergence soil spray, visual injury rating 0-100", "conditions": "10 days, 0 = no effect, 100 = complete control", "summary_of_the_method": "as §1"}, "[7]": {"test_system": "palmer (palmer amaranth, palmer pigweed, Amaranthus palmeri)", "assay": "Test A preemergence soil spray, visual injury rating 0-100", "conditions": "10 days, 0 = no effect, 100 = complete control", "summary_of_the_method": "as §1"}, "[8]": {"test_system": "ragweed (common ragweed, Ambrosia artemisiifolia)", "assay": "Test A preemergence soil spray, visual injury rating 0-100", "conditions": "10 days, 0 = no effect, 100 = complete control", "summary_of_the_method": "as §1"}, "[9]": {"test_system": "ryegrass, Italian (italian ryegrass, Lolium multiflorum)", "assay": "Test A preemergence soil spray, visual injury rating 0-100", "conditions": "10 days, 0 = no effect, 100 = complete control", "summary_of_the_method": "as §1"}, "[10]": {"test_system": "soybean (Glycine max)", "assay": "Test A preemergence soil spray, visual injury rating 0-100", "conditions": "10 days, 0 = no effect, 100 = complete control", "summary_of_the_method": "as §1"}, "[11]": {"test_system": "wheat (Triticum aestivum)", "assay": "Test A preemergence soil spray, visual injury rating 0-100", "conditions": "10 days, 0 = no effect, 100 = complete control", "summary_of_the_method": "as §1"}, "[12]": {"test_system": "barnyardgrass (Echinochloa crus-galli)", "assay": "Test A postemergence application, visual injury rating 0-100", "conditions": "Postemergence", "summary_of_the_method": "as §1"}, "[13]": {"test_system": "blackgrass (Alopecurus myosuroides)", "assay": "Test A postemergence application, visual injury rating 0-100", "conditions": "Postemergence", "summary_of_the_method": "as §1"}, "[14]": {"test_system": "corn (Zea mays)", "assay": "Test A postemergence application, visual injury rating 0-100", "conditions": "Postemergence", "summary_of_the_method": "as §1"}, "[15]": {"test_system": "galium (catchweed bedstraw, Galium aparine)", "assay": "Test A postemergence application, visual injury rating 0-100", "conditions": "Postemergence", "summary_of_the_method": "as §1"}, "[16]": {"test_system": "green foxtail (Setaria viridis)", "assay": "Test A postemergence application, visual injury rating 0-100", "conditions": "Postemergence", "summary_of_the_method": "as §1"}, "[17]": {"test_system": "horseweed (Erigeron canadensis)", "assay": "Test A postemergence application, visual injury rating 0-100", "conditions": "Postemergence", "summary_of_the_method": "as §1"}, "[18]": {"test_system": "kochia (Bassia scoparia)", "assay": "Test A postemergence application, visual injury rating 0-100", "conditions": "Postemergence", "summary_of_the_method": "as §1"}, "[19]": {"test_system": "oat, wild (wild oat, Avena fatua)", "assay": "Test A postemergence application, visual injury rating 0-100", "conditions": "Postemergence", "summary_of_the_method": "as §1"}, "[20]": {"test_system": "palmer (palmer amaranth, palmer pigweed, Amaranthus palmeri)", "assay": "Test A postemergence application, visual injury rating 0-100", "conditions": "Postemergence", "summary_of_the_method": "as §1"}, "[21]": {"test_system": "ragweed (common ragweed, Ambrosia artemisiifolia)", "assay": "Test A postemergence application, visual injury rating 0-100", "conditions": "Postemergence", "summary_of_the_method": "as §1"}, "[22]": {"test_system": "ryegrass, Italian (italian ryegrass, Lolium multiflorum)", "assay": "Test A postemergence application, visual injury rating 0-100", "conditions": "Postemergence", "summary_of_the_method": "as §1"}, "[23]": {"test_system": "soybean (Glycine max)", "assay": "Test A postemergence application, visual injury rating 0-100", "conditions": "Postemergence", "summary_of_the_method": "as §1"}, "[24]": {"test_system": "wheat (Triticum aestivum)", "assay": "Test A postemergence application, visual injury rating 0-100", "conditions": "Postemergence", "summary_of_the_method": "as §1"}, "[25]": {"test_system": "barnyardgrass (Echinochloa crusgalli)", "assay": "Test B flooded paddy test, visual plant response rating 0-100", "conditions": "250 g ai/ha, Flood, applied to paddy water, evaluated after 13 days", "summary_of_the_method": "(§2)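 2-leaf plants; flood 3 cm over soil; compound dosed into paddy water; depth kept constant; greenhouse 13 d; visual scoring vs controls. Dash = no result.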"}, "[26]": {"test_system": "ducksalad (Heteranthera limosa)", "assay": "Test B flooded paddy test, visual plant response rating 0-100", "conditions": "250 g ai/ha, Flood, applied to paddy water, evaluated after 13 days", "summary_of_the_method": "as §2"}, "[27]": {"test_system": "rice (Oryza sativa)", "assay": "Test B flooded paddy test, visual plant response rating 0-100", "conditions": "250 g ai/ha, Flood, applied to paddy water, evaluated after 13 days", "summary_of_the_method": "as §2"}, "[28]": {"test_system": "sedge, umbrella (small-flower umbrella sedge, Cyperus difformis)", "assay": "Test B flooded paddy test, visual plant response rating 0-100", "conditions": "250 g ai/ha, Flood, applied to paddy water, evaluated after 13 days", "summary_of_the_method": "as §2"}, "[29]": {"conditions": "31 g ai/ha, greenhouse 10 days, 0 no effect, 100 complete control"}, "[30]": {"conditions": "125 g ai/ha, 10 days, 0 is no effect, 100 is complete control"}}, "data": [{"smiles": "CC(=O)COC(=O)C1C=CC(NC(=O)C2(C)CN(c3cc(Cl)cc(Cl)c3)C(=O)O2)C1", "note": "(stereo not shown) [Compound 67]", "values": [{"measurement": "Barnyardgrass plant response rating (0-100)", "setting": "[1]; 31 g ai/ha", "value": 50}, {"measurement": "Barnyardgrass plant response rating (0 to 100 scale)", "setting": "[1]; 125 g ai/ha", "value": 90}, {"measurement": "Blackgrass plant response rating (0-100)", "setting": "[2]; 31 g ai/ha", "value": 20}, {"measurement": "Blackgrass plant response rating (0 to 100 scale)", "setting": "[2]; 125 g ai/ha", "value": 70}, {"measurement": "Corn plant response rating (0-100)", "setting": "[3]; 31 g ai/ha", "value": 0}, {"measurement": "Corn plant response rating (0 to 100 scale)", "setting": "[3]; 125 g ai/ha", "value": 70}, {"measurement": "Foxtail, Green plant response rating (0-100)", "setting": "[4]; 31 g ai/ha", "value": 20}, {"measurement": "Foxtail, Green plant response rating (0 to 100 scale)", "setting": "[4]; 125 g ai/ha", "value": 90}, {"measurement": "Kochia plant response rating (0-100)", "setting": "[5]; 31 g ai/ha", "value": 70}, {"measurement": "Kochia plant response rating (0 to 100 scale)", "setting": "[5]; 125 g ai/ha", "value": 80}, {"measurement": "Oat, Wild plant response rating (0-100)", "setting": "[6]; 31 g ai/ha", "value": 40}, {"measurement": "Oat, Wild plant response rating (0 to 100 scale)", "setting": "[6]; 125 g ai/ha", "value": 70}, {"measurement": "Amaranth, Palmer plant response rating (0-100)", "setting": "[7]; 31 g ai/ha", "value": 90}, {"measurement": "Amaranth, Palmer plant response rating (0 to 100 scale)", "setting": "[7]; 125 g ai/ha", "value": 100}, {"measurement": "Ragweed plant response rating (0-100)", "setting": "[8]; 31 g ai/ha", "value": 0}, {"measurement": "Ragweed plant response rating (0 to 100 scale)", "setting": "[8]; 125 g ai/ha", "value": 60}, {"measurement": "Ryegrass, Italian plant response rating (0-100)", "setting": "[9]; 31 g ai/ha", "value": 70}, {"measurement": "Ryegrass, Italian plant response rating (0 to 100 scale)", "setting": "[9]; 125 g ai/ha", "value": 80}, {"measurement": "Soybean plant response rating (0-100)", "setting": "[10]; 31 g ai/ha", "value": 0}, {"measurement": "Soybean plant response rating (0 to 100 scale)", "setting": "[10]; 125 g ai/ha", "value": 30}, {"measurement": "Wheat plant response rating (0-100)", "setting": "[11]; 31 g ai/ha", "value": 30}, {"measurement": "Wheat plant response rating (0 to 100 scale)", "setting": "[11]; 125 g ai/ha", "value": 90}, {"measurement": "Barnyardgrass plant response rating (0 to 100 scale)", "setting": "[12]; [29]", "value": 100}, {"measurement": "Barnyardgrass plant response rating (0 to 100 scale)", "setting": "[12]; [30]", "value": 100}, {"measurement": "Blackgrass plant response rating (0 to 100 scale)", "setting": "[13]; [29]", "value": 90}, {"measurement": "Blackgrass plant response rating (0 to 100 scale)", "setting": "[13]; [30]", "value": 100}, {"measurement": "Corn plant response rating (0 to 100 scale)", "setting": "[14]; [29]", "value": 100}, {"measurement": "Corn plant response rating (0 to 100 scale)", "setting": "[14]; [30]", "value": 100}, {"measurement": "Galium plant response rating (0 to 100 scale)", "setting": "[15]; [29]", "value": 80}, {"measurement": "Galium plant response rating (0 to 100 scale)", "setting": "[15]; [30]", "value": 90}, {"measurement": "Foxtail, Green plant response rating (0 to 100 scale)", "setting": "[16]; [29]", "value": 90}, {"measurement": "Foxtail, Green plant response rating (0 to 100 scale)", "setting": "[16]; [30]", "value": 90}, {"measurement": "Horseweed plant response rating (0 to 100 scale)", "setting": "[17]; [29]", "value": 50}, {"measurement": "Horseweed plant response rating (0 to 100 scale)", "setting": "[17]; [30]", "value": 70}, {"measurement": "Kochia plant response rating (0 to 100 scale)", "setting": "[18]; [29]", "value": 70}, {"measurement": "Kochia plant response rating (0 to 100 scale)", "setting": "[18]; [30]", "value": 70}, {"measurement": "Oat, Wild plant response rating (0 to 100 scale)", "setting": "[19]; [29]", "value": 90}, {"measurement": "Oat, Wild plant response rating (0 to 100 scale)", "setting": "[19]; [30]", "value": 90}, {"measurement": "Amaranth, Palmer / Pigweed, Palmer plant response rating (0 to 100 scale)", "setting": "[20]; [29]", "value": 80}, {"measurement": "Amaranth, Palmer / Pigweed, Palmer plant response rating (0 to 100 scale)", "setting": "[20]; [30]", "value": 90}, {"measurement": "Ragweed plant response rating (0 to 100 scale)", "setting": "[21]; [29]", "value": 50}, {"measurement": "Ragweed plant response rating (0 to 100 scale)", "setting": "[21]; [30]", "value": 80}, {"measurement": "Ryegrass, Italian plant response rating (0 to 100 scale)", "setting": "[22]; [29]", "value": 70}, {"measurement": "Ryegrass, Italian plant response rating (0 to 100 scale)", "setting": "[22]; [30]", "value": 90}, {"measurement": "Soybean plant response rating (0 to 100 scale)", "setting": "[23]; [29]", "value": 80}, {"measurement": "Soybean plant response rating (0 to 100 scale)", "setting": "[23]; [30]", "value": 80}, {"measurement": "Wheat plant response rating (0 to 100 scale)", "setting": "[24]; [29]", "value": 90}, {"measurement": "Wheat plant response rating (0 to 100 scale)", "setting": "[24]; [30]", "value": 90}, {"measurement": "Plant response rating, Barnyardgrass (0 to 100 scale, 0 is no effect and 100 is complete control)", "setting": "[25]", "value": 65}, {"measurement": "Plant response rating, Ducksalad (0 to 100 scale, 0 is no effect and 100 is complete control)", "setting": "[26]", "value": 98}, {"measurement": "Plant response rating, Rice (0 to 100 scale, 0 is no effect and 100 is complete control)", "setting": "[27]", "value": 30}, {"measurement": "Plant response rating, Sedge, Umbrella (0 to 100 scale, 0 is no effect and 100 is complete control)", "setting": "[28]", "value": 100}]}]}
